Assay: xn = mol fraction of the nth substance listed

CC(C)CCO + CCCCO
298.15 K, 101 kPa
Conditions	viscosity [mPa·s]
x2 = 0.1033	3.62
x2 = 0.204	3.472
x2 = 0.2977	3.343
x2 = 0.4026	3.211
x2 = 0.5005	3.093
x2 = 0.6046	2.972
x2 = 0.6996	2.851
x2 = 0.8015	2.746
x2 = 0.9172	2.615

CCOCCO + CCCCO
viscosity [mPa·s]
Conditions	298.15 K	303.15 K	308.15 K	313.15 K
101 kPa, x1 = 0.0837	2.434	–	–	–
101 kPa, x1 = 0.1706	2.312	–	–	–
101 kPa, x1 = 0.2606	2.206	–	–	–
101 kPa, x1 = 0.3541	2.113	–	–	–
101 kPa, x1 = 0.4513	2.035	–	–	–
101 kPa, x1 = 0.5523	1.984	–	–	–
101 kPa, x1 = 0.6574	1.949	–	–	–
101 kPa, x1 = 0.7669	1.925	–	–	–
101 kPa, x1 = 0.881	1.902	–	–	–
101.33 kPa, x1 = 0.1017	2.284	1.999	1.771	1.565
101.33 kPa, x1 = 0.2007	2.13	1.887	1.671	1.49
101.33 kPa, x1 = 0.2996	2.015	1.787	1.589	1.42
101.33 kPa, x1 = 0.4028	1.958	1.731	1.546	1.378
101.33 kPa, x1 = 0.5032	1.891	1.677	1.499	1.34
101.33 kPa, x1 = 0.6036	1.86	1.656	1.48	1.331
101.33 kPa, x1 = 0.6986	1.838	1.634	1.462	1.31
101.33 kPa, x1 = 0.8029	1.829	1.63	1.458	1.314
101.33 kPa, x1 = 0.9	1.822	1.629	1.462	1.309

CNC(C)=O + CCCCO
303.15 K, 101 kPa
Conditions	viscosity [mPa·s]
x1 = 0.0988	2.32
x1 = 0.2013	2.369
x1 = 0.2993	2.428
x1 = 0.3951	2.525
x1 = 0.4945	2.651
x1 = 0.5957	2.82
x1 = 0.6947	3.015
x1 = 0.8011	3.259
x1 = 0.8918	3.503

CC(C)CCO + CCCCOC(C)=O
308 K, 101 kPa
Conditions	viscosity [mPa·s]
x2 = 0.0998	2.631
x2 = 0.2003	2.091
x2 = 0.3001	1.715
x2 = 0.3999	1.418
x2 = 0.4998	1.221
x2 = 0.5999	1.019
x2 = 0.6997	0.917
x2 = 0.8002	0.811
x2 = 0.9002	0.734

CCOCCO + CCCCOC(C)=O
298.15 K, 101 kPa
Conditions	viscosity [mPa·s]
x1 = 0.0826	0.6948
x1 = 0.1249	0.7087
x1 = 0.1454	0.7178
x1 = 0.2182	0.7512
x1 = 0.3951	0.8537
x1 = 0.4691	0.9144
x1 = 0.502	0.9435
x1 = 0.5174	0.9569
x1 = 0.5604	0.9991
x1 = 0.6488	1.101
x1 = 0.7547	1.258
x1 = 0.7674	1.276
x1 = 0.7794	1.296
x1 = 0.9079	1.564
x1 = 0.9531	1.676
x1 = 0.9678	1.72

Reference: the CheMixHub viscosity set
